From patent publication US4757151A, “2-substituted-[2-substituted-amino]-N-arylalkyl-3-[indol-3-yl]” (Warner-Lambert Company, priority 1986, dated 1988)

Tests used:
[1] = percent repression of food intake (appetite suppression) in laboratory rats trained to a six hour feeding period; type: in vivo, adult male Wistar rats
Text: In this screen, adult male Wistar rats weighing between 250-400 g were housed individually and trained to consume their daily intake of food within a six hour period. Food was then withdrawn for the remaining eighteen hour period of each day. Drinking water was available at all times, and the animals were maintained on a twelve hour light/twelve hour dark cycle. This training regimen was maintained for a seven-day period. Powdered, rather than pelletized, food was used to minimize spillage and to facilitate measurement of food intake.
On each test day, a group of twelve rats was used, six receiving a single dose of test compound and six serving as a control group. Immediately after dosing, the rats were allowed access to food. Food intake was then monitored over the next six-hour period. The food hoppers were weighed at intervals of 30 minutes, and at 1, 2, 3, 4, 5, and 6 hours after administration of the test compound. The percent repression of food intake of laboratory rats under these conditions for the prior art octapeptide, CCK26-33, and for several compounds of the present invention appear in Table 2.

[2] = target: T1, CCK receptor (Mus musculus, UniProt P56481); test: displacement of tritiated pentagastrin binding to mouse cerebral cortical membranes (CCK receptor binding screening test); parameters: species or system male CFLP mice; settings: tritiated pentagastrin (2 nM) displacement, Cheng-Prusoff
T1 construct: the cerebral cortices from male CFLP mice weighing between 30-40 g were dissected on ice, weighed and homogenized; from tissue; host or cells: cerebral cortex membranes of male CFLP mice
T1 sequence (P56481 1-453): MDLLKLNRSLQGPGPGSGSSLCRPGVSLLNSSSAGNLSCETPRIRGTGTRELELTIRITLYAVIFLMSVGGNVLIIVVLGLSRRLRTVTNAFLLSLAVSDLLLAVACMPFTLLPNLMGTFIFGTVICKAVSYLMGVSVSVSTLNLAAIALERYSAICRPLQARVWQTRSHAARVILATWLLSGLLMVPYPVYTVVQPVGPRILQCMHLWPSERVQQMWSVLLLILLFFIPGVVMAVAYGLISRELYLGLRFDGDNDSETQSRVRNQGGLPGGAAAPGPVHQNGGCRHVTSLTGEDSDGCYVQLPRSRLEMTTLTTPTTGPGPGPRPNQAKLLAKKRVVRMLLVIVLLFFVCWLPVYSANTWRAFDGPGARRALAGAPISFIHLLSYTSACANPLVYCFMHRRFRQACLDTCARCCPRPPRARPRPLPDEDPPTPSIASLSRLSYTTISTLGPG
Experimental: The biological activities of compounds of this invention were evaluated employing an initial screening test which rapidly and accurately measured the binding of the tested compound to known CCK receptor cites. […] (See Hays et al., Neuropeptides, 1: 53-62 (1980); and Sauter et al., Science, 208: 1155-1156 (1980).
In the screening test, the cerebral cortices from male CFLP mice weighing between 30-40 g were dissected on ice, weighed and homogenized in 10 volumes of 50 mM Tris-HCl buffer (pH 7.4 at 0°-4° C.). The resulting suspension was centrifuged, the supernate was discarded, and the pellet was washed by resuspension in Tris-HCl buffer followed by recentrifugation.
The final pellet was resuspended in 10 volumes of 10 mM Hepes buffer (pH 7.2 at 23° C.) containing 130 mM NaCl, 4.7 mM KCl, 1 mM EDTA, 5 mg/ml bovine albumin, and bacitracin (0.25 mg/ml). […]
Following incubation, radioactivity bound to membranes was separated from that free in solution by rapid filtration through Whatman GF/B filters and washed three times with 4-ml portions of ice-cold Tris-HCl buffer. Filters from samples incubated with tritiated pentagastrin were placed in polyethylene vials with 8 ml of scintillation cocktail, and the radioactivity was estimated by scintillation spectrometry (efficiency 47-52%). […]
Saturation curves for specific tritiated pentagastrin binding to mouse cortical membranes were analyzed by statisitcal methods to provide estimates for the maximum number of binding sites (Bmax) and the equilibrium dissociation constant (Kd).
In the displacement experiements, inhibition curves were analyzed by logit-log plots to provide estimates of the IC50 and nH (apparent Hill coefficient) values. […]
The inhibition constant, Ki, of the test compound was then calculated according to the Cheng-Prusoff equation: [formula] where [L] is the molar concentration of radiolabel and Kd is the equilibrium dissociation constant.

Compound | Percent Repression of Food Intake After 0.5 Hours ([1]; I.P. 300 mg/kg) [%] | Percent Repression of Food Intake After 1.0 Hours ([1]; I.P. 300 mg/kg) [%] | Percent Repression of Food Intake After 3.0 Hours ([1]; I.P. 300 mg/kg) [%] | Percent Repression of Food Intake After 6.0 Hours ([1]; I.P. 300 mg/kg) [%] | Ki [2] [µM] | Percent Repression of Food Intake After 0.5 Hours ([1]; I.P. 100 mg/kg) [%] | Percent Repression of Food Intake After 1.0 Hours ([1]; I.P. 100 mg/kg) [%] | Percent Repression of Food Intake After 3.0 Hours ([1]; I.P. 100 mg/kg) [%] | Percent Repression of Food Intake After 6.0 Hours ([1]; I.P. 100 mg/kg) [%] | other results
CC(Cc1c[nH]c2ccccc12)(NC(=O)OC(C)(C)C(Cl)(Cl)Cl)C(=O)NCCc1ccccn1 (racemic) [Example 19, (±)-[1-(1H-Indol-3-ylmethyl)-1-methyl-2-oxo-2-[[2-(2-pyridinyl)ethyl]amino]ethyl]carbamic acid, 2,2,2-trichloro-1,1-dimethylethyl ester] | 35 | 49 | 60 | 55 | – | – | – | – | – | Percent Repression of Food Intake After 0.5 Hours ([1]; P.O. 300 mg/kg): 78%; Percent Repression of Food Intake After 1.0 Hours ([1]; P.O. 300 mg/kg): 68%; Percent Repression of Food Intake After 3.0 Hours ([1]; P.O. 300 mg/kg): 52%; Percent Repression of Food Intake After 6.0 Hours ([1]; P.O. 300 mg/kg): 52%
CC(C)(C)OC(=O)N[C@@](C)(Cc1c[nH]c2ccccc12)C(=O)N[C@@H](Cc1ccccc1)C(N)=O (single isomer, unassigned) [Example 2, N-[(1,1-Dimethylethoxy)carbonyl]-α-methyltryptophyl-L-phenylalaninamide] | – | – | – | – | 6 | 66 | 54 | 1 | 0 | Percent Repression of Food Intake After 0.5 Hours ([1]; I.P. 4 mg/kg): 24%; Percent Repression of Food Intake After 1.0 Hours ([1]; I.P. 4 mg/kg): 13%; Percent Repression of Food Intake After 3.0 Hours ([1]; I.P. 4 mg/kg): 19%; Percent Repression of Food Intake After 6.0 Hours ([1]; I.P. 4 mg/kg): 14%
CCC(C)(C)OC(=O)NC(C)(Cc1c[nH]c2ccccc12)C(=O)NCCc1ccccc1 (stereo not shown) [Example 6, [1-(1H-Indol-3-ylmethyl)-1-methyl-2-oxo-2-[(2-phenylethyl)amino]ethyl]-carbamic acid, 1,1-dimethylpropyl ester] | – | – | – | – | 6.5 | 8 | 22 | 36 | 13 | –
CCC(C)(C)OC(=O)NC(C)(Cc1c[nH]c2ccccc12)C(=O)NC(CO)Cc1ccccc1 (stereo not shown) [Example 7, [2-[[1-(Hydroxymethyl)-2-phenylethyl]-amino]-1-(1H-indol-3-ylmethyl)-1-methyl-2-oxoethyl]-carbamic acid, 1,1-dimethylpropyl ester] | 64 | 45 | 23 | 11 | 6.8 | – | – | – | – | –
CCK26-33: prior art octapeptide, carboxyl-terminus fragment of cholecystokinin [reference compound] | – | – | – | – | – | – | – | – | – | Percent Repression of Food Intake After 0.5 Hours ([1]; I.P. 5 mg/kg): 50%; Percent Repression of Food Intake After 1.0 Hours ([1]; I.P. 5 mg/kg): 40%; Percent Repression of Food Intake After 3.0 Hours ([1]; I.P. 5 mg/kg): 3%; Percent Repression of Food Intake After 6.0 Hours ([1]; I.P. 5 mg/kg): 12%
